Results from patent publication US20100069317A1, “CRYSTALLINE NEMORUBICIN HYDROCHLORIDE” (NERVIANO MEDICAL SCIENCES S.R.L., priority 2006, published 2010).

Legend:
[1] = Hygroscopicity, dynamic water vapour sorption (DVS 1000); type: physicochemical; conditions: for Change In Mass (%): 25° C.; for hygroscopicity (in words): when exposed to humidity
Protocol: Hygroscopicity tests were performed by means of a DVS 1000 apparatus (SMS) allowing dynamic water vapour sorption analysis. Multiple sorption/desorption cycles between 0% and 90% RH were performed at 25° C.
The equipment is a “controlled atmosphere microbalance” where the weighed sample is exposed to controlled variations of the relative humidity (RH) at a constant temperature.

[2] = in the presence of mouse, rat and human liver microsomes; cited from earlier work
[3] = system: liver metastases from M5076 murine fibrosarcoma; conditions: oral administration; cited from earlier work
[4] = system: tumor cells resistant to alkylating agents or topoisomerase II inhibitors; conditions: cells resistant to alkylating agents (melphalan, cisplatin) or topoisomerase II inhibitors (etoposide); cited from earlier work
[5] = system: experimental tumors (animal models); conditions: cited from earlier work

Compound: COc1cccc2c1C(=O)c1c(O)c3c(c(O)c1C2=O)C[C@@](O)(C(=O)CO)C[C@@H]3O[C@H]1C[C@H](N2CCO[C@H](OC)C2)[C@H](O)[C@H](C)O1.Cl [Amorphous, (8S-cis,2″S)-7,8,9,10-tetrahydro-6,8,11-trihydroxy-8-(hydroxyacetyl)-1-methoxy-10-{[2,3,6-trideoxy-3-(2-methoxy-4-morpholinyl)-α-L-lyxo-hexopyranosyl]oxy}-5,12-naphthacenedione hydrochloride]
- Change In Mass (%) ([1]; Relative Humidity 3.1%, hydrochloride): 0.30%
- Change In Mass (%) ([1]; Relative Humidity 6.2%, hydrochloride): 0.83%
- Change In Mass (%) ([1]; Relative Humidity 9.3%, hydrochloride): 1.35%
- Change In Mass (%) ([1]; Relative Humidity 12.4%, hydrochloride): 1.93%
- Change In Mass (%) ([1]; Relative Humidity 15.5%, hydrochloride): 2.45%
- Change In Mass (%) ([1]; Relative Humidity 18.6%, hydrochloride): 2.92%
- Change In Mass (%) ([1]; Relative Humidity 21.7%, hydrochloride): 3.37%
- Change In Mass (%) ([1]; Relative Humidity 24.8%, hydrochloride): 3.79%
- Change In Mass (%) ([1]; Relative Humidity 27.9%, hydrochloride): 4.19%
- Change In Mass (%) ([1]; Relative Humidity 31.0%, hydrochloride): 4.62%
- Change In Mass (%) ([1]; Relative Humidity 34.1%, hydrochloride): 5.08%
- Change In Mass (%) ([1]; Relative Humidity 37.2%, hydrochloride): 5.52%
- Change In Mass (%) ([1]; Relative Humidity 40.3%, hydrochloride): 5.96%
- Change In Mass (%) ([1]; Relative Humidity 43.5%, hydrochloride): 6.43%
- Change In Mass (%) ([1]; Relative Humidity 46.6%, hydrochloride): 6.90%
- Change In Mass (%) ([1]; Relative Humidity 49.7%, hydrochloride): 7.37%
- Change In Mass (%) ([1]; Relative Humidity 52.8%, hydrochloride): 7.88%
- Change In Mass (%) ([1]; Relative Humidity 55.9%, hydrochloride): 8.36%
- Change In Mass (%) ([1]; Relative Humidity 59.0%, hydrochloride): 8.92%
- Change In Mass (%) ([1]; Relative Humidity 62.1%, hydrochloride): 9.46%
- Change In Mass (%) ([1]; Relative Humidity 65.2%, hydrochloride): 10.10%
- Change In Mass (%) ([1]; Relative Humidity 68.3%, hydrochloride): 10.85%
- Change In Mass (%) ([1]; Relative Humidity 71.4%, hydrochloride): 11.69%
- Change In Mass (%) ([1]; Relative Humidity 74.5%, hydrochloride): 12.67%
- Change In Mass (%) ([1]; Relative Humidity 77.6%, hydrochloride): 14.01%
- Change In Mass (%) ([1]; Relative Humidity 80.7%, hydrochloride): 15.76%
- Change In Mass (%) ([1]; Relative Humidity 83.8%, hydrochloride): 18.09%
- Change In Mass (%) ([1]; Relative Humidity 86.9%): 21.51%
- Change In Mass (%) ([1]; Relative Humidity 90.0%, hydrochloride): 26.66%
- hygroscopicity (in words) ([1]; listed as nemorubicin amorphous, hydrochloride): highly hygroscopic

Compound: COc1cccc2c1C(=O)c1c(O)c3c(c(O)c1C2=O)C[C@@](O)(C(=O)CO)C[C@@H]3O[C@H]1C[C@H](N2CCO[C@H](OC)C2)[C@H](O)[C@H](C)O1.Cl [Form A, nemorubicin hydrochloride dihydrate]
- Change In Mass (%) ([1]; Relative Humidity 0.0%): 0.00%
- Change In Mass (%) ([1]; Relative Humidity 3.1%, hydrochloride dihydrate): 1.92%
- Change In Mass (%) ([1]; Relative Humidity 6.2%, hydrochloride dihydrate): 3.53%
- Change In Mass (%) ([1]; Relative Humidity 9.3%, hydrochloride dihydrate): 3.82%
- Change In Mass (%) ([1]; Relative Humidity 12.4%, hydrochloride dihydrate): 4.02%
- Change In Mass (%) ([1]; Relative Humidity 15.5%, hydrochloride dihydrate): 4.17%
- Change In Mass (%) ([1]; Relative Humidity 18.6%, hydrochloride dihydrate): 4.29%
- Change In Mass (%) ([1]; Relative Humidity 21.7%, hydrochloride dihydrate): 4.39%
- Change In Mass (%) ([1]; Relative Humidity 24.8%, hydrochloride dihydrate): 4.49%
- Change In Mass (%) ([1]; Relative Humidity 27.9%, hydrochloride dihydrate): 4.57%
- Change In Mass (%) ([1]; Relative Humidity 31.0%, hydrochloride dihydrate): 4.65%
- Change In Mass (%) ([1]; Relative Humidity 34.1%, hydrochloride dihydrate): 4.71%
- Change In Mass (%) ([1]; Relative Humidity 37.2%, hydrochloride dihydrate): 4.77%
- Change In Mass (%) ([1]; Relative Humidity 40.3%, hydrochloride dihydrate): 4.82%
- Change In Mass (%) ([1]; Relative Humidity 43.5%, hydrochloride dihydrate): 4.86%
- Change In Mass (%) ([1]; Relative Humidity 46.6%, hydrochloride dihydrate): 4.91%
- Change In Mass (%) ([1]; Relative Humidity 49.7%, hydrochloride dihydrate): 4.95%
- Change In Mass (%) ([1]; Relative Humidity 52.8%, hydrochloride dihydrate): 5.01%
- Change In Mass (%) ([1]; Relative Humidity 55.9%, hydrochloride dihydrate): 5.07%
- Change In Mass (%) ([1]; Relative Humidity 59.0%, hydrochloride dihydrate): 5.13%
- Change In Mass (%) ([1]; Relative Humidity 62.1%, hydrochloride dihydrate): 5.19%
- Change In Mass (%) ([1]; Relative Humidity 65.2%, hydrochloride dihydrate): 5.25%
- Change In Mass (%) ([1]; Relative Humidity 68.3%, hydrochloride dihydrate): 5.31%
- Change In Mass (%) ([1]; Relative Humidity 71.4%, hydrochloride dihydrate): 5.38%
- Change In Mass (%) ([1]; Relative Humidity 74.5%, hydrochloride dihydrate): 5.46%
- Change In Mass (%) ([1]; Relative Humidity 77.6%, hydrochloride dihydrate): 5.52%
- Change In Mass (%) ([1]; Relative Humidity 80.7%, hydrochloride dihydrate): 5.58%
- Change In Mass (%) ([1]; Relative Humidity 83.8%, hydrochloride dihydrate): 5.66%
- Change In Mass (%) ([1]; Relative Humidity 86.9%, hydrochloride dihydrate): 5.75%
- Change In Mass (%) ([1]; Relative Humidity 90.0%, hydrochloride dihydrate): 5.85%
- RH at which the two moles of water lost on desorption are re-adsorbed ([1]; after a desorption cycle): 30%
- change in mass ([1]; at about 55% RH): about 5%
- hygroscopicity (in words) ([1]; hydrochloride dihydrate): non hygroscopic

Compound: COc1cccc2c1C(=O)c1c(O)c3c(c(O)c1C2=O)C[C@@](O)(C(=O)CO)C[C@@H]3O[C@H]1C[C@H](N2CCO[C@H](OC)C2)[C@H](O)[C@H](C)O1 [nemorubicin, 3′ des amino-3′ [2(S)methoxy-4-morpholinyl] doxorubicin]
- cytotoxic activity in vitro [2]: increased
- survival time (best result) [3]: doubling of survival time
- cross-resistance [4]: no cross-resistance was observed
- optimal i.v. dose, fold less than that of doxorubicin ([5]; i.v., in vivo): at least 80 fold
- oral doses giving antitumor activity comparable to i.v., fold higher than the effective i.v. doses ([5]; oral vs i.v., all the animal models examined): 1.3-2 fold
